Among the data in a melting point compilation (Tetko et al.; mined from patent text by program, amines drawn as free bases though some values may be those of a salt) are melting point values, retold here.

As a reminder, the melting point is the temperature of the solid-liquid transition.

Some results are limits rather than exact numbers.

Compound `Cc1cc(C)cc(NC(=O)Cc2ccc(OC(C)C(=O)O)cc2)c1` (centres undefined) gave a melting point of 183 to 187 °C. `CN(c1cccc2cc(C3=NCC(C)(CCO)S3)[nH]c12)S(=O)(=O)c1cccs1` (centres undefined) showed a melting point of 149 to 150 °C. With `CC(C)c1ccc(N)nn1` the figure was 131 to 132 °C; with `O=C1Nc2ccc(I)cc2C1=NNC(=O)c1ccc(I)cc1`, 326 °C; with `COc1ccc(Cl)c(Oc2c(Cl)nc(C)nc2NS(=O)(=O)c2ccc(C(C)(C)C)cc2)c1`, 182 °C. With `COC(=O)CCC(=O)c1ccc2oc3ccccc3c2c1` the figure was 106 to 108 °C; with `CC1(C)CC(=O)c2c(NCc3ccccc3)sc(-c3cc[nH]n3)c2C1`, 204 to 206 °C; with `COc1ccc(-c2nc3n(c2-c2ccc(OC)cc2)CCS3)cc1`, 155 to 158 °C. Take `O=C(Nc1ccc(S(=O)(=O)C(F)(F)F)cc1)Nn1cnc2ccccc2c1=O`: the melting point is 118 to 121 °C.

The compound `ClC1(CN2c3ccccc3Sc3ccccc32)CN2CCC1CC2` (centres undefined) came in with a melting point of 156 to 160 °C.

For `CC(CC(=O)O)Nc1cccc(Cl)c1` (centres undefined), the melting point is 50 °C. Consider `CN(C)C1=CC(=O)c2ccccc2OC1`, for which the melting point was 136 °C. The compound `C=C(Cn1cncn1)Cn1cncn1` showed a melting point of 52 °C. The compound `Nc1cccc(CCO)c1` displayed a melting point of 61 to 64 °C. The result for `COc1ccc(OC)c(CNc2ccc3nc[nH]c(=O)c3c2)c1` reads 203 to 205 °C; that for `O=C1CCCN1c1cccc(Cc2n[nH]c(=O)c3ccccc23)c1`, 206 to 207 °C. With `O=c1sc(=Nc2ccc(Cl)cc2)n2n1CCCC2` the figure was 82 to 85 °C; with `CS(=O)(=O)c1c(C(=O)NN=Cc2ccc(Cl)cc2)[nH]c2ccccc12`, greater than 280 °C; with `CCN1C(=O)CC(C)(C)c2ccc(C#N)cc21`, 120 to 121 °C. As to `CC(C)(C(=O)O)n1c(=O)[nH]c2ccc(Cl)cc2c1=O`, the melting point lay within 256 to 259 °C. In the case of `Cc1ccc(N2C(=O)C(O)=C(C(=O)c3ccc(C(C)C)cc3)C2c2ccc(Cn3cncn3)cc2)nn1` (centres undefined), the melting point was 223 °C.

For `CSc1ccc(C(=O)Nc2ccc3ccc(Cl)nc3n2)s1`, the melting point stood at 235 °C. Turning to `CCOC(=O)C1=C(COCc2nnn(CCN)n2)NC(C)=C(C(=O)OC)C1c1ccccc1Cl` (centres undefined), the melting point fell in the range of 126 to 127 °C. With `Cc1ccc(-c2nc3ccc(CN4CCN(C)CC4)cc3[nH]2)cc1C#Cc1cnc2cccnn12` the figure was 114 to 115 °C; with `CCc1c(C#N)c(-c2ccc(C#N)cc2)c(C)n1Cc1cnc(Cl)c(CO)c1`, 126 to 127 °C. For the compound `CS(=O)c1ccc(CSc2nnc(-c3ccc4c(c3)CCO4)o2)cc1C(F)(F)F` (centres undefined), the melting point was in the range of 177 to 178 °C. As to `CC1CCCCc2ncc(C#N)c(=O)n21` (centres undefined), the melting point turned out to be 154 °C. The compound `CCCCCCCCCCCCc1ccc(NC(C)=O)c([N+](=O)[O-])c1` registered a melting point of 71 to 73 °C. Consider `O=C(O)CC(Cc1ccccc1)NC(=O)C1Cc2ccccc2N1S(=O)(=O)c1ccc(-c2cccc(C(F)(F)F)c2)cc1` (centres undefined), for which the melting point was in the range of 78 to 82 °C. For `COc1c2c(c(OC)c(OC)c1OC)CC(C(=O)O)(c1ccc(OCCCC(=O)O)cc1)C2`, the melting point fell in the range of 148 to 150 °C. With `NC(=O)c1cc(OCCNCC(O)c2ccccn2)ccc1O` (centres undefined) the figure was 169 to 170 °C; with `CCc1c(NC(=O)c2cc(S(C)(=O)=O)ccc2OCC(C)C)c(C(N)=O)nn1C1CCN(C(=O)OC(C)(C)C)CC1`, 134 to 141 °C; with `CCOC(=O)n1cc(C=O)c(-c2ccc([N+](=O)[O-])o2)n1`, 140 to 141 °C. Turning to `CNc1cc(C)nc2c(S(=O)(=O)c3ccc(C)cc3)c(SC)nn12`, the melting point is greater than 230 °C. For the compound `Cc1cc2ncccc2[nH]1`, the melting point lay in the range of 193 to 195 °C.

As to `Nc1ccc(S(=O)(=O)c2cc(N)cc(Br)n2)cc1`, the melting point lay in the range of 202 to 204 °C. With `Cc1c(C)c2c(c(C)c1OCc1ccccc1)C(CN1CCCC1CO)C(C)(C)O2` (mixture of isomers) the figure was 99 to 101 °C. In the case of `Cc1nc(NC(=O)c2cnn3c(C(F)F)cc(-c4ccc(C(F)(F)F)cc4)nc23)sc1S(=O)(=O)N(CCO)CCO`, the melting point was found to be 191 °C.

For the compound `CNC(=O)CCn1ncccc1=O`, the melting point is 94 to 96 °C. For the compound `CC(C)(C)NC(=O)[C@@H]1CCCN1C(=O)[C@@H](O)[C@H](Cc1ccccc1)NC(=O)[C@H](CC(N)=O)NC(=O)COc1ccccc1N`, the melting point fell in the range of 107 to 114 °C. Consider `O=C(Nc1ccc(C=CCN2C(=O)c3ccccc3C2=O)cc1)c1ccccc1-c1ccc(C(F)(F)F)cc1`, for which the melting point was 190 °C. `Cc1nc(N)nc(N)c1CCC(C)c1ccc(Cl)cc1` (centres undefined) returned a melting point of 125 to 128 °C. Turning to `CCCCCCCCCCCCCCCCCCCCCCOS(=O)(=O)c1ccc(Cl)cc1`, the melting point was 74 to 75 °C. The result for `CN(C)Cc1cc2c(s1)Oc1ccccc1N=C2N1CCN(C)CC1` reads 188 to 189 °C; that for `COc1cc(N)c(Cl)cc1C(=O)NCC1CCN(CCCCCC(=O)c2csc3ccccc23)CC1`, 130 to 132 °C. For the compound `CC(Oc1ccc(-c2ccc(CC(=O)NC3CC3)cc2)cc1)C(O)CCc1cccnc1` (centres undefined), the melting point is 117 to 118 °C.

The compound `CC12CCC(=O)C=C1CCC1C3CC(OCC4CO4)C(O)(C(=O)CO)C3(C)CC(O)C12F` (centres undefined) gave a melting point of 191 to 192 °C. In the case of `O=C(CCCCCS(=O)c1ccc(Cl)cc1)NO` (centres undefined), the melting point stood at 125 °C. `Cc1cccc(C(=O)O)c1N(C)S(=O)(=O)c1ccc(OCCCNC(=O)c2cc3ccccc3[nH]2)cc1`: the melting point came out at 199 °C. In turn, `CCOC(=O)c1nccn1CCCc1ccc(OCc2coc(/C=C/c3ccccc3)n2)cc1` came in with a melting point of 123 to 124 °C. Take `CS(=O)(=O)c1ccc(-n2nc(C(F)(F)F)cc2-c2ccc(-c3ccco3)cc2)cc1F`: the melting point lay within 129 to 130 °C. For `CC1(C)CC(=NO)c2cc(-c3ccccc3)ccc2O1`, the melting point is 130 to 134 °C.

For the compound `CCCSC1=NSc2cc(C)cnc2N1Cc1ccc(-c2ccccc2-c2nnn[nH]2)cc1`, the melting point is 158 to 160 °C. Compound `O=c1c2cc(F)c(F)cc2[nH]c2c1cnn2-c1ccccn1` returned a melting point greater than 300 °C. Take `CCOC(=O)C(CO)c1ccc(OCC)cc1` (centres undefined): the melting point lay within 35 to 36 °C.

With `CC(C)(C)C=NNC(=O)OCc1ccccc1`, the melting point was 74 to 74.5 °C. Compound `Clc1cccc(OCC(Cn2ccnc2)Sc2c(Cl)cccc2Cl)c1Cl` (centres undefined) displayed a melting point of 135 to 136 °C.

For the compound `CCn1cc(-c2ccc(F)c(C)c2)nc1COCc1ccccc1`, the melting point was 200 °C. The result for `O=[N+]([O-])c1c(NC2CC2)ncnc1N1CCc2ccccc2CC1` reads 135 to 138 °C. The result for `O=C(c1cccnn1)c1ccccc1Cl` reads 105 to 107 °C; that for `O=C1C(=O)N2c3c(cccc31)OCC2c1ccccc1` (centres undefined), 169 to 171 °C; that for `CCOC(=O)C1=C(C)Nc2nc(N3CCOCC3)nc(N3CCOCC3)c2C1c1ccccn1` (centres undefined), 226 °C.

`COc1cc(Br)cc2c1OCCC2=O` gave a melting point of 137 °C. The result for `O=C(O)C12CCCCC1CSc1ccccc12` (centres undefined) reads 200 to 203 °C; that for `COC(=O)c1cc(=O)c2cc(C(F)(F)F)ccc2[nH]1`, 289 to 291 °C; that for `CNc1c(C)cc([N+](=O)[O-])cc1C`, 99 °C.

As for `C=CCN(CC)c1nc(N2CCc3ccccc3CC2)c(C#N)c(=O)n1CC=C`, the melting point lay within 138 to 140 °C. `O=C1CC(=O)/C(=C/c2ccccc2)N1` returned a melting point of 186 to 187 °C. For `CC(=O)C1=C(O)C(=C(C)Nc2cc(NS(C)(=O)=O)cc(NS(C)(=O)=O)c2)C(=O)OC1=O`, the melting point is 260 °C. On to `Cc1oc(-c2ccccc2)nc1CCOc1ccc(CNO)cc1`, for which the melting point lay within 99 to 102 °C. `CC(C)(C)c1cc(SCN2C(=O)c3ccccc3C2=O)cc(C(C)(C)C)c1O` displayed a melting point of 151 to 153 °C. With `CC(C)(C)OC(=O)N1CCc2ccc3ccn(CCO)c3c2CC1` the figure was 226 to 229 °C; with `O=C(c1ccc(F)cc1O)C1CC1`, 58 °C. Turning to `COC(=O)c1ccn2cc(Cc3cccc(F)c3C)c(-c3ccccc3)c2c1`, the melting point turned out to be 55 °C. The result for `CCCCCCCCCCCCCCCCN1CCN(c2ccc(CCC(=O)O)cc2)CC1` reads 218 to 220 °C; that for `CCCC(CCC)C(=O)O/N=C(\C)[C@H]1CC[C@H]2[C@@H]3CCC4=CC(=O)CC[C@]4(C)[C@H]3CC[C@]12C`, 78 to 80 °C; that for `O=C(NC1N=C(c2ccccc2F)c2ccccc2NC1=O)c1ccsc1` (racemic), 238 to 239 °C. The result for `Cc1c(F)ncn1CC(=O)c1ccccc1` reads 84.5 °C; that for `COc1cc2onc(C3CCN(CCCn4c(=O)[nH]c5ccccc54)CC3)c2cc1OC`, 147 to 149 °C; that for `CN1C2CCCC1CC(NC(=O)c1cccc3nc(-c4ccccc4)oc13)C2` (centres undefined), 208 to 210 °C.

As for `COC(=O)CCC(=O)SCC(=O)NC(C)=O`, the melting point fell in the range of 111 to 113 °C. As for `O=[N+]([O-])c1ccc2c(c1)CN(Cc1ccccc1)C2`, the melting point fell in the range of 80.5 to 81 °C. Consider `CC(C)OC(=O)C=Cc1cc(N2C(=O)CC(C(F)(F)F)N(C)C2=O)ccc1Cl` (centres undefined), for which the melting point was 200 to 202 °C. With `CNC(=O)c1ccccc1Nc1nc(Nc2cccc3c2N(C)CCNC3=O)ncc1Cl`, the melting point fell in the range of 282 to 284 °C. Compound `CC(CCCC(C)(C)O)C1CCC2C3=CC=C4CCCC(O)C4(C)C3CCC21C` (centres undefined) came in with a melting point of 151 to 152 °C.

`Cn1cc(Cl)c(=O)c(-c2cccc(C(F)(F)F)c2)c1` returned a melting point of 170 to 172 °C.

In turn, `CC(C)n1cc(C(=O)NCc2ccc(Cl)cc2)c(=O)c2cc(CN3CCOCC3)sc21` registered a melting point of 191 to 195 °C.

In turn, `CN1CCc2cc([N+](=O)[O-])c(O)cc2C(c2ccc3c(c2)CCC3)C1` (centres undefined) returned a melting point of 58 to 63 °C.

Compound `CCn1cc(C(=O)O)c(=O)c2cc(F)c(N3CCNC(CF)C3)cc21` (centres undefined) returned a melting point of 177 to 180 °C.
